From patent US20090042983A1, “Use of L-carnitine for the treatment of cardiovascular diseases” (Sigma-Tau Industrie Farmaceutiche Riunite S.p.A., priority 2003, published 2009)

Key:
[1] = test system: perfused heart; settings: cited from earlier work
[2] = test system: patients with acute myocardial infarction; assay: Multicentre double-blind placebo-controlled randomised clinical trial of L-carnitine on mortality (Example 1); format: in vivo, human
Procedure: A clinical trial was conducted in order to evaluate the effect of the administration of L-carnitine on the incidence of mortality and heart failure in the short and long term in patients with acute myocardial infarction. The acute myocardial infarction has not localized within a specific region of the organ but it could be located anywhere in the heart. The trial design was that of a multicentre, parallel-group, double-blind, placebo-controlled, randomised trial.
A total of 2,296 male and female patients aged below 80 years were recruited. The study compound, L-carnitine, was administered at a dose of 9 g/day i.v. for the first 5 days and 4 g/day by mouth from day 6 to day 180.
Concomitant therapies were given according to the procedures adopted in local clinical practice.
The efficacy endpoints of the trial consisted in the reduction of mortality and heart failure.
• Typical chest pain lasting>30 minutes, not resolved by the oral or intravenous administration of nitrates; • ECG with ST segment deviation≧0.2 mV in D, and aVL and/or in two or more contiguous precordial leads; • Time interval elapsing from onset of symptoms to trial randomisation<12 hours; • Age<80 years; • Written informed consent.
• Pregnancy or breast-feeding; • Haemodynamically significant valvulopathy; • Hypertrophic or dilated cardiomyopathy; • Congenital heart disease; • Clinically severe liver or kidney disease; • Alcohol abuse; • Other diseases associated with a poor life expectancy; • Conditions making poor compliance with treatment and/or periodic visits likely; • Inclusion in another trial.

[3] = test system: patients affected by anterior acute myocardial infarction; settings: cited from earlier work
[4] = test system: acute myocardial infarction; settings: 40 mg/kg/day (2.8 g/day); cited from earlier work
[5] = test system: patients with acute myocardial infarction; settings: 3 grams every 8 hours (9 grams a day) intravenous for 48 hours; symptoms within 8 hours; 351 patients; cited from earlier work
[6] = test system: cardiac ischaemia; settings: dogs, cardiac ischaemia model; cited from earlier work

| Compound | lactate levels [1] | postischemic cardiac contraction amplitude [1] | release of LDH [1] | reserve of high-energy phosphate [1] | coronary flow ([1]; postischemic) | NUMBER OF DEATHS AT: 1 mos ([2]; 9 g/day i.v. first 5 days, 4 g/day by mouth day 6 to 180, at 1 mos) | NUMBER OF DEATHS AT: 2 mos ([2]; 9 g/day i.v. first 5 days, 4 g/day by mouth day 6 to 180, at 2 mos) | NUMBER OF DEATHS AT: 6 mos ([2]; 9 g/day i.v. first 5 days, 4 g/day by mouth day 6 to 180, at 6 mos) | NUMBER OF DEATHS AT: 12 mos ([2]; 9 g/day i.v. first 5 days, 4 g/day by mouth day 6 to 180, at 12 mos) | RR (Relative Risk) of death at 1 mos ([2]; L-carnitine vs placebo, at 1 mos) | RR (Relative Risk) of death at 2 mos ([2]; L-carnitine vs placebo, at 2 mos) | RR (Relative Risk) of death at 6 mos ([2]; L-carnitine vs placebo, at 6 mos) | RR (Relative Risk) of death at 12 mos ([2]; L-carnitine vs placebo, at 12 mos) | reduction in deaths at the other observation times ([2]; vs placebo, 3 and 7 days, 1, 2, 6, 12 mos) | reduction in deaths after 5 days' treatment ([2]; vs placebo, after 5 days' treatment (P<0.05)) | left ventricular dilation in the first year after infarction ([3]; anterior acute myocardial infarction) | deaths during the hospitalisation period ([3]; treated group, L-carnitine within 24 hours from onset of chest pain, 14 in control group, 472 patients in total) | difference between patients treated within 4 hours and more than 4 hours after onset of infarct symptoms [4] | mortality vs control group at 7 days after the start of treatment [5] | cardiac lipid metabolism [6] |
| --- | --- | --- | --- | --- | --- | --- | --- | --- | --- | --- | --- | --- | --- | --- | --- | --- | --- | --- | --- | --- |
| C[N+](C)(C)C[C@H](O)CC(=O)[O-].O=C(O)/C=C/C(=O)O [L-carnitine fumarate] | lower lactate levels | greater | reduced release of LDH | higher reserve of high-energy phosphate | greater |  |  |  |  |  |  |  |  |  |  |  |  |  |  |  |
| C[N+](C)(C)C[C@H](O)CC(=O)[O-] [L-carnitine] |  |  |  |  |  | 45 | 53 | 64 | 67 | 0.78 | 0.81 | 0.86 | 0.89 | significant reductions | statistically significant reduction in deaths | significant attenuation of left ventricular dilation | 11 | no significant difference | no significant difference | active in improving cardiac lipid metabolism |
